Data published in patent publication US9556158B2, “Fungicidal 3-[(pyridin-2-ylmethoxyimino)(phenyl)methyl]-2-substituted-1,2,4-oxadiazol-5(2H)-one derivatives” (BAYER INTELLECTUAL PROPERTY GMBH, priority 2011, dated 2017).
Where two headings read alike, the source gives them in different places.

Assays:
Phytophthora infestans = experiment: whole plant or invertebrate; assay type: in vivo; settings: in Solanum lycopersicum, 120 h, read-out: % efficacy
[1] = HPLC on reversed phase columns, pH 2.7, 0.1% formic acid in water / acetonitrile gradient; for chromatographic logP: pH 2.7, LogP
Procedure: Measurement of log P values was performed according EEC directive 79/831 Annex V.A8 by HPLC (High Performance Liquid Chromatography) on reversed phase columns with the following method:
Measurement of LC-MS was done at pH 2.7 with 0.1% formic acid in water and with acetonitrile (contains 0.1% formic acid) as eluent with a linear gradient from 10% acetonitrile to 95% acetonitrile.
Calibration was done with not branched alkan2-ones (with 3 to 16 carbon atoms) with known log P-values (measurement of log P values using retention times with linear interpolation between successive alkanones). lambda-maX-values were determined using UV-spectra from 200 nm to 400 nm and the peak values of the chromatographic signals.

[2] = compounds of formula (V), Table 2

Compound	pest or weed control at 500 ppm (Phytophthora infestans)	chromatographic logP [1]	LogP [1]	chromatographic logP [1, 2]
CCCCC(=O)Nc1cccc(CON=C(c2ccccc2)c2nc(=O)on2C)n1 [Example 12]	100%	2.9	–	–
Cc1cccc(C(=NOCc2cccc(NC(=O)OC(C)(C)C)n2)c2nc(=O)on2C)c1 [Example 21]	100%	3.65	–	–
Cn1oc(=O)nc1C(=NOCc1cccc(N)n1)c1cccc(F)c1 [Example 23]	98%	0.99	–	–
Cn1oc(=O)nc1C(=NOCc1cccc(NC(=O)OC2CCCCC2)n1)c1ccccc1 [Example 26]	99%	3.81	–	–
COc1cccc(C(=NOCc2cccc(NC(=O)OC3CCCCC3)n2)c2nc(=O)on2C)c1 [Example 28]	78%	3.85	–	–
Cc1cccc(C(=NOCc2cccc(NC(=O)OC3CCCCC3)n2)c2nc(=O)on2C)c1 [Example 30]	78%	4.11	–	–
Cc1cccc(C(=NOCc2cccc(N)n2)c2nc(=O)on2C)c1 [Example 31]	93%	1.17	–	–
Cn1oc(=O)nc1C(=NOCc1cccc(NC(=O)OC2CCCCC2)n1)c1cccc(F)c1 [Example 33]	100%	3.92	–	–
CCCCSC(=S)Nc1cccc(CON=C(c2ccccc2)c2nc(=O)on2C)n1 [Example 38]	93%	4.15	–	–
Cn1oc(=O)nc1C(=NOCc1cccc(NC(=O)SC(C)(C)C)n1)c1ccccc1 [Example 39]	99%	3.73	–	–
CCn1oc(=O)nc1/C(=N\OCc1cccc(NC(=O)OC(C)(C)C)n1)c1ccccc1 [Example 40, tert-butyl {6-[({[(Z)-(2-ethyl-5-oxo-2,5-dihydro-1,2,4-oxadiazol-3-yl)(phenyl)methylene]amino}oxy)methyl]pyridin-2-yl}carbamate]	73%	3.58	–	–
CCCCOC(=S)Nc1cccc(CON=C(c2ccccc2)c2nc(=O)on2C)n1 [Example 43]	99%	3.89	–	–
COc1ccc(CC(=O)Nc2cccc(CON=C(c3cccc(OC)c3)c3nc(=O)o[nH]3)n2)cc1 [Example 48]	100%	2.98	–	–
CCCCCCC(=O)Nc1cccc(CON=C(c2cccc(OC)c2)c2nc(=O)o[nH]2)n1 [Example 50]	100%	3.71	–	–
CCCCCOC(=O)Nc1cccc(CON=C(c2cccc(C)c2)c2nc(=O)on2C)n1 [Example 56]	83%	4.11	–	–
Cc1cccc(C(=NOCc2cccc(NC(=O)C(C)(C)C)n2)c2nc(=O)on2C)c1 [Example 57]	75%	3.17	–	–
CCCCOC(=O)Nc1cccc(CON=C(c2cccc(C)c2)c2nc(=O)on2C)n1 [Example 58]	75%	3.69	–	–
CCCCCC(=O)Nc1cccc(CON=C(c2cccc(C)c2)c2nc(=O)on2C)n1 [Example 59]	90%	3.58	–	–
CCCCC(=O)Nc1cccc(CON=C(c2cccc(C)c2)c2nc(=O)on2C)n1 [Example 60]	89%	3.19	–	–

Compound	pest or weed control at 500 ppm (Phytophthora infestans)	chromatographic logP [1]	LogP [1]	chromatographic logP [1, 2]
COc1cccc(C(=O)Nc2cccc(CON=C(c3cccc(OC)c3)c3nc(=O)o[nH]3)n2)c1 [Example 63]	80%	3.06	–	–
COc1cccc(C(=O)Nc2cccc(CON=C(c3cccc(F)c3)c3nc(=O)o[nH]3)n2)c1 [Example 64]	85%	3.13	–	–
CC#CCOC(=O)Nc1cccc(CON=C(c2cccc(F)c2)c2nc(=O)o[nH]2)n1 [Example 65]	100%	2.94	–	–
CCCCOC(=O)Nc1cccc(CON=C(c2cccc(OC)c2)c2nc(=O)o[nH]2)n1 [Example 66]	70%	3.42	–	–
CCCCCC(=O)Nc1cccc(CON=C(c2cccc(F)c2)c2nc(=O)o[nH]2)n1 [Example 68]	98%	3.37	–	–
CCCCCOC(=O)Nc1cccc(CON=C(c2cccc(F)c2)c2nc(=O)o[nH]2)n1 [Example 69]	100%	3.89	–	–
CCCCCCC(=O)Nc1cccc(CON=C(c2cccc(F)c2)c2nc(=O)o[nH]2)n1 [Example 70]	80%	3.76	–	–
CCCCOC(=O)Nc1cccc(CON=C(c2cccc(F)c2)c2nc(=O)o[nH]2)n1 [Example 71]	95%	3.48	–	–
CCCCC(=O)Nc1cccc(CON=C(c2cccc(F)c2)c2nc(=O)o[nH]2)n1 [Example 72]	85%	2.98	–	–
COc1ccc(CC(=O)Nc2cccc(CON=C(c3cccc(F)c3)c3nc(=O)o[nH]3)n2)cc1 [Example 73]	95%	3	–	–
O=C(Cc1cccc(F)c1)Nc1cccc(CON=C(c2cccc(F)c2)c2nc(=O)o[nH]2)n1 [Example 74]	85%	3.13	–	–
Cc1cccc(C(=O)Nc2cccc(CON=C(c3cccc(F)c3)c3nc(=O)o[nH]3)n2)c1 [Example 75]	98%	3.35	–	–
O=C(Cc1ccccc1)Nc1cccc(CON=C(c2cccc(F)c2)c2nc(=O)o[nH]2)n1 [Example 76]	90%	3.04	–	–
CCCCCCC(=O)Nc1cccc(CON=C(c2cccc(C)c2)c2nc(=O)on2C)n1 [Example 78]	70%	3.96	–	–
Cn1oc(=O)nc1C(=NOCc1cccc(NC(=O)OCC2CC2)n1)c1ccccc1 [Example 180]	–	3.04	–	–
Cn1oc(=O)nc1C(=NOCc1cccc(NC(=O)OCCCC2CC2)n1)c1ccccc1 [Example 181]	–	3.76	–	–
C/C=C/CCCOC(=O)Nc1cccc(CON=C(c2ccccc2)c2nc(=O)on2C)n1 [Example 183]	–	3.81	–	–
Cn1oc(=O)nc1C(=NOCc1cccc(NC(=O)OCc2ccccc2Cl)n1)c1ccccc1 [Example 184]	–	3.76	–	–
COc1ccc(OC(=O)Nc2cccc(CON=C(c3ccccc3)c3nc(=O)on3C)n2)cc1 [Example 185]	–	3.15	–	–

Compound	pest or weed control at 500 ppm (Phytophthora infestans)	chromatographic logP [1]	LogP [1]	chromatographic logP [1, 2]
Cn1oc(=O)nc1C(=NOCc1cccc(NC(=O)OC(C)(C)C)n1)c1cccc(F)c1F [Example 187]	–	–	3.33	–
CCCCOC(=O)Nc1cccc(CON=C(c2cccc(F)c2F)c2nc(=O)on2C)n1 [Example 188]	–	3.46	–	–
C#CCCOC(=O)Nc1cccc(CON=C(c2cccc(F)c2F)c2nc(=O)on2C)n1 [Example 189]	–	2.78	–	–
Cn1oc(=O)nc1C(=NOCc1cccc(NC(=O)OCCc2ccccc2)n1)c1cccc(F)c1F [Example 190]	–	3.62	–	–
COc1ccc(CC(=O)Nc2cccc(CON=C(c3cccc(F)c3F)c3nc(=O)on3C)n2)cc1 [Example 191]	–	2.98	–	–
Cn1oc(=O)nc1C(=NOCc1cccc(N)n1)c1cccc(F)c1F [Example 192]	–	0.96	–	–
Cn1oc(=O)nc1/C(=N\OCc1cccc(Br)n1)c1ccccc1 [Example 193, 3-[(Z)-{[(6-bromopyridin-2-yl)methoxy]imino}(phenyl)methyl]-2-methyl-1,2,4-oxadiazol-5(2H)-one]	–	2.75	–	–
C#CCCOC(=O)Nc1cccc(CO/N=C(\C(=N)N(C)O)c2ccccc2)n1 [Example V-01, but-3-yn-1-yl (6-{[({(1Z)-2-[hydroxy(methyl)amino]-2-imino-1-phenylethylidene}amino)oxy]methyl}pyridin-2-yl)carbamate]	–	–	–	1.63
CN(O)C(=N)/C(=N\OCc1cccc(NC(=O)OC(C)(C)C)n1)c1ccccc1 [Example V-02, tert-butyl (6-{[({(1Z)-2-[hydroxy(methyl)amino]-2-imino-1-phenylethylidene}amino)oxy]methyl}pyridin-2-yl)carbamate]	–	–	–	1.81
CN(O)C(=N)C(=NOCc1cccc(N)n1)c1ccccc1 [Example V-03]	–	–	–	0.22
Cc1cccc(C(=NOCc2cccc(NC(=O)OC(C)(C)C)n2)C(=N)N(C)O)c1 [Example V-04]	–	–	–	1.93
CN(O)C(=N)/C(=N\OCc1cccc(NC(=O)OC(C)(C)C)n1)c1cccc(F)c1 [Example V-05, tert-butyl (6-{[({(1Z)-2-[hydroxy(methyl)amino]-2-imino-1-(3-fluorophenyl)ethylidene}amino)oxy]methyl}pyridin-2-yl)carbamate]	–	–	–	1.86
COc1cccc(C(=NOCc2cccc(NC(=O)OC(C)(C)C)n2)C(=N)N(C)O)c1 [Example V-06]	–	–	–	1.86
COCCN(O)C(=N)C(=NOCc1cccc(NC(=O)OC(C)(C)C)n1)c1ccccc1 [Example V-07]	–	–	–	1.93
CCN(O)C(=N)/C(=N\OCc1cccc(NC(=O)OC(C)(C)C)n1)c1ccccc1 [Example V-08, tert-butyl (6-{[({(1Z)-2-[hydroxy(ethyl)amino]-2-imino-1-(phenyl)ethylidene}amino)oxy]methyl}pyridin-2-yl)carbamate]	–	–	–	1.9
CC(C)N(O)C(=N)C(=NOCc1cccc(NC(=O)OC(C)(C)C)n1)c1ccccc1 [Example V-09]	–	–	–	2.05
CN(O)C(=N)C(=NOCc1cccc(NC(=O)OC(C)(C)C)n1)c1cccc(F)c1F [Example V-10]	–	–	–	1.9
CN(O)C(=N)C(=NOCc1cccc(NC(=O)OC(C)(C)C)n1)c1ccccc1C(F)F [Example V-11]	–	–	–	2.43
CN(O)C(=N)/C(=N\OCc1cccc(Br)n1)c1ccccc1 [Example V-12, (2Z)-2-{[(6-bromopyridin-2-yl)methoxy]imino}-N-hydroxy-N-methyl-2-phenylethanimidamide]	–	–	–	1.39
